Read-outs that look alike come from different tables or passages of the source.
How the values were obtained:
Format in all cases: cell-based
[1] = test system: primary human hepatocyte (PHH); assay: PHH natural infection assay, cytotoxicity (Cell Counting Kit-8); settings: HBV-infected primary human hepatocytes, CCK8, end of treatment
Summary of the method: (§1)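 HBV-infected at 200 GE/cell with 4% PEG8000 for 24 h, then sandwich-cultured 72 h in 1% DMSO and 0.25 mg/mL matrix gel. Compound added twice at 72-h intervals; supernatant HBsAg and HBeAg read by AlphaLISA, HBV DNA by quantitative fluorescence PCR kit. Cytotoxicity by CCK-8.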

HBeAg = assay: PHH HBV natural infection assay, HBeAg (alphalisa)
Summary of the method: (§2)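 Primary human hepatocytes infected with HBV at 200 GE/cell plus 4% PEG8000 for 24 h, then sandwich-cultured 72 h. Compounds were added in two refreshes 72 h apart. HBsAg and HBeAg in supernatant measured by AlphaLISA.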

HBsAg = assay: PHH HBV natural infection assay, HBsAg (alphalisa)
Summary of the method: as §2

[2] = PHH natural infection assay, cytotoxicity (Cell Counting Kit-8); settings: human, HBV-infected primary human hepatocytes, CCK8, end of treatment
Summary of the method: as §1

[3] = read-out: HbeAg IC50, HBV-infected primary human hepatocytes, supernatant, compound medium refreshed two times with 72-hour interval
[4] = read-out: HBsAg IC50, HBV-infected primary human hepatocytes, supernatant, compound medium refreshed two times with 72-hour interval
[5] = Hepatitis B virus, Hepatocyte, 72 h, read-out: HbeAg IC50, HBV-infected primary human hepatocytes, supernatant, compound medium refreshed two times with 72-hour interval
[6] = Hepatitis B virus, Hepatocyte, 72 h, read-out: HBsAg IC50, HBV-infected primary human hepatocytes, supernatant, compound medium refreshed two times with 72-hour interval

Compound	CC50 [1]	IC50 (HBeAg; [3])	IC50 (HBsAg; [4])	CC50 at 144 h [2]	IC50 (HBeAg; [5])	IC50 (HBsAg; [6])
O=C(NC1CC2(C1)CC(c1nc3cc(Cl)ccc3o1)C2)c1ccc([S+]([O-])CC2CC2)o1 (single isomer, unassigned) [Example 19-b, N-[6-(5-chloro-1,3-benzoxazol-2-yl)spiro[3.3]heptan-2-yl]-5-(cyclopropylmethylsulfinyl)furan-2-carboxamide]	> 10 µM	0.053 µM	0.071 µM			
O=C(NC1CC2(C1)CC(c1nc3cc(Cl)ccc3o1)C2)c1ccc([S+]([O-])CC2CC2)o1 (single isomer, unassigned) [Example 19-c, N-[6-(5-chloro-1,3-benzoxazol-2-yl)spiro[3.3]heptan-2-yl]-5-(cyclopropylmethylsulfinyl)furan-2-carboxamide]	> 10 µM	1.95 µM	2.42 µM			
O=C(NC1CC2(C1)CC(c1nc3cc(Cl)ccc3o1)C2)c1ccc([S+]([O-])CC2CC2)o1 (single isomer, unassigned) [Example 19-d, N-[6-(5-chloro-1,3-benzoxazol-2-yl)spiro[3.3]heptan-2-yl]-5-(cyclopropylmethylsulfinyl)furan-2-carboxamide]	> 10 µM	2.5 µM	2.86 µM			
NS(=O)(=O)c1ccc(C(=O)NC2CC3(C2)CC(c2nc4cc(Cl)ccc4o2)C3)o1 (single isomer, unassigned) [Example 29-b, N-[6-(5-chloro-1,3-benzoxazol-2-yl)spiro[3.3]heptan-2-yl]-5-sulfamoyl-furan-2-carboxamide]	> 100 µM	0.909 µM	1.55 µM			
O=C(NC1CC2(C1)CC(c1nc3cc(Cl)cnc3o1)C2)c1ccc(S(=O)(=O)C2CC2)o1 (single isomer, unassigned) [Example 49-b, N-[6-(6-chlorooxazolo[5,4-b]pyridin-2-yl)spiro[3.3]heptan-2-yl]-5-cyclopropylsulfonyl-furan-2-carboxamide]	91.5 µM	0.626 µM	0.647 µM			
CS(=N)(=O)c1ccc(C(=O)NC2CC3(C2)CC(c2nc4cc(Cl)ccc4o2)C3)o1 (single isomer, unassigned) [Example 52-b, N-[6-(5-chloro-1,3-benzoxazol-2-yl)spiro[3.3]heptan-2-yl]-5-(methylsulfonimidoyl)furan-2-carboxamide]	> 100 µM	0.898 µM	0.939 µM			
CS(=N)(=O)c1ccc(C(=O)NC2CC3(C2)CC(c2nc4cc(Cl)ccc4o2)C3)o1 (single isomer, unassigned) [Example 52-c, N-[6-(5-chloro-1,3-benzoxazol-2-yl)spiro[3.3]heptan-2-yl]-5-(methylsulfonimidoyl)furan-2-carboxamide]	> 100 µM	3.61 µM	5.04 µM			
N=S(=O)(c1ccc(C(=O)NC2CC3(C2)CC(c2nc4cc(Cl)ccc4o2)C3)o1)C1CC1 (single isomer, unassigned) [Example 53-a, N-[6-(5-chloro-1,3-benzoxazol-2-yl)spiro[3.3]heptan-2-yl]-5-(cyclopropylsulfonimidoyl)furan-2-carboxamide]	> 10 µM	1.27 µM	1.89 µM			
N=S(=O)(c1ccc(C(=O)NC2CC3(C2)CC(c2nc4cc(Cl)ccc4o2)C3)o1)C1CC1 (single isomer, unassigned) [Example 53-b, N-[6-(5-chloro-1,3-benzoxazol-2-yl)spiro[3.3]heptan-2-yl]-5-(cyclopropylsulfonimidoyl)furan-2-carboxamide]	> 10 µM	4.65 µM	6.83 µM			
N=S(=O)(c1ccc(C(=O)NC2CC3(C2)CC(c2nc4cc(Cl)ccc4o2)C3)o1)C1CC1 (single isomer, unassigned) [Example 53-d, N-[6-(5-chloro-1,3-benzoxazol-2-yl)spiro[3.3]heptan-2-yl]-5-(cyclopropylsulfonimidoyl)furan-2-carboxamide]	92.8 µM	1.34 µM	1.12 µM			
N=S(=O)(CC1CC1)c1ccc(C(=O)NC2CC3(C2)CC(c2nc4cc(Cl)ccc4o2)C3)o1 (single isomer, unassigned) [Example 54-a, N-[6-(5-chloro-1,3-benzoxazol-2-yl)spiro[3.3]heptan-2-yl]-5-(cyclopropylmethylsulfonimidoyl)furan-2-carboxamide]	> 10 µM	5.7 µM	6.06 µM			
N=S(=O)(CC1CC1)c1ccc(C(=O)NC2CC3(C2)CC(c2nc4cc(Cl)ccc4o2)C3)o1 (single isomer, unassigned) [Example 54-b, N-[6-(5-chloro-1,3-benzoxazol-2-yl)spiro[3.3]heptan-2-yl]-5-(cyclopropylmethylsulfonimidoyl)furan-2-carboxamide]	> 100 µM	0.166 µM	0.285 µM			
N=S(=O)(CC1CC1)c1ccc(C(=O)NC2CC3(C2)CC(c2nc4cc(Cl)ccc4o2)C3)o1 (single isomer, unassigned) [Example 54-c, N-[6-(5-chloro-1,3-benzoxazol-2-yl)spiro[3.3]heptan-2-yl]-5-(cyclopropylmethylsulfonimidoyl)furan-2-carboxamide]	> 10 µM	4.59 µM	5.84 µM			
N=S(=O)(CC1CC1)c1ccc(C(=O)NC2CC3(C2)CC(c2nc4cc(Cl)ccc4o2)C3)o1 (single isomer, unassigned) [Example 54-d, N-[6-(5-chloro-1,3-benzoxazol-2-yl)spiro[3.3]heptan-2-yl]-5-(cyclopropylmethylsulfonimidoyl)furan-2-carboxamide]	> 10 µM	0.694 µM	0.703 µM			
N=S(=O)(c1ccc(C(=O)NC2CC3(C2)CC(c2nc4cc(Cl)cnc4o2)C3)o1)C1CC1 (single isomer, unassigned) [Example 64-d, N-[6-(6-chlorooxazolo[5,4-b]pyridin-2-yl)spiro[3.3]heptan-2-yl]-5-(cyclopropylsulfonimidoyl)furan-2-carboxamide]	> 10 µM					
O=C(NC1CC2(C1)CC(c1nc3cc(Cl)ccc3o1)C2)c1ccc(S(=O)(=O)NC(=O)C2CCCC2)o1 (stereo not shown) [Example 81, N-[6-(5-chloro-1,3-benzoxazol-2-yl)spiro[3.3]heptan-2-yl]-5-(cyclopentanecarbonylsulfamoyl)furan-2-carboxamide]				11.3 µM	0.796 µM	1.74 µM
O=C(NC1CC2(C1)CC(c1nc3cc(Cl)ccc3o1)C2)c1ccc(S(=O)(=O)NC(=O)C2CCCCC2)o1 (stereo not shown) [Example 82, N-[6-(5-chloro-1,3-benzoxazol-2-yl)spiro[3.3]heptan-2-yl]-5-(cyclohexanecarbonylsulfamoyl)furan-2-carboxamide]				85.7 µM	0.224 µM	0.461 µM
O=C(NC1CC2(C1)CC(c1nc3cc(Cl)ccc3o1)C2)c1ccc(S(=O)(=O)NC(=O)C2CS(=O)(=O)C2)o1 (stereo not shown) [Example 83, N-[6-(5-chloro-1,3-benzoxazol-2-yl)spiro[3.3]heptan-2-yl]-5-[(1,1-dioxothietane-3-carbonyl)sulfamoyl]furan-2-carboxamide]				> 10 µM	1.97 µM	3.3 µM
O=C(NC1CC2(C1)CC(c1nc3cc(Cl)ccc3o1)C2)c1ccc(S(=O)(=O)NC(=O)C2CCS(=O)(=O)C2)o1 (stereo not shown) [Example 84, N-[6-(5-chloro-1,3-benzoxazol-2-yl)spiro[3.3]heptan-2-yl]-5-[(1,1-dioxothiolane-3-carbonyl)sulfamoyl]furan-2-carboxamide]				> 10 µM	6.32 µM	9 µM
O=C(NC1CC2(C1)CC(c1nc3cc(Cl)ccc3o1)C2)c1ccc(S(=O)(=O)NC(=O)C2CCCS(=O)(=O)C2)o1 (stereo not shown) [Example 85, N-[6-(5-chloro-1,3-benzoxazol-2-yl)spiro[3.3]heptan-2-yl]-5-[(1,1-dioxothiane-3-carbonyl)sulfamoyl]furan-2-carboxamide]				> 10 µM	1.67 µM	2.52 µM
O=C(NC1CC2(C1)CC(c1nc3cc(Cl)ccc3o1)C2)c1ccc(S(=O)(=O)NC(=O)C2COC2)o1 (stereo not shown) [Example 86, N-[6-(5-chloro-1,3-benzoxazol-2-yl)spiro[3.3]heptan-2-yl]-5-(oxetane-3-carbonylsulfamoyl)furan-2-carboxamide]				> 10 µM	2.19 µM	2.99 µM
O=C(NC1CC2(C1)CC(c1nc3cc(Cl)ccc3o1)C2)c1ccc(S(=O)(=O)NC(=O)C2CCOCC2)o1 (stereo not shown) [Example 87, N-[[5-[[6-(5-chloro-1,3-benzoxazol-2-yl)spiro[3.3]heptan-2-yl]carbamoyl]-2-furyl]sulfonyl]tetrahydropyran-4-carboxamide]				> 10 µM	0.981 µM	1.3 µM
CNS(=O)(=O)c1ccc(C(=O)NC2CC3(C2)CC(c2nc4cc(Cl)ccc4o2)C3)o1 (stereo not shown) [Example 88, N-[6-(5-chloro-1,3-benzoxazol-2-yl)spiro[3.3]heptan-2-yl]-5-(methylsulfamoyl)furan-2-carboxamide]				> 10 µM	0.687 µM	1 µM
CN(C)S(=O)(=O)c1ccc(C(=O)NC2CC3(C2)CC(c2nc4cc(Cl)ccc4o2)C3)o1 (stereo not shown) [Example 89, N-[6-(5-chloro-1,3-benzoxazol-2-yl)spiro[3.3]heptan-2-yl]-5-(dimethylsulfamoyl)furan-2-carboxamide]				> 10 µM	0.723 µM	1.04 µM

Reference: patent publication US20230286969A1, “AROMATIC SPIRO RING AMIDE DERIVATIVES FOR THE TREATMENT AND PROPHYLAXIS OF HEPATITIS B VIRUS INFECTION” (Hoffmann-La Roche Inc., priority 2020, published 2023)
